Assay results reported in patent publication US8158621B2, “Methods of treating or preventing autoimmune diseases with 2,4-pyrimidinediamine compounds” (Rigel Pharmaceuticals, Inc., priority 2002, dated 2012).

What was measured:
[1] = test system: basophil cells (human peripheral blood); assay: Basophil ionomycin activation: histamine release assay; assay type: cell-based; details: basophils, ionomycin activation, histamine release; read-out: Basophils Ionomycin Histamine IC50
Method in brief: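 Dextran-sedimented leukocytes from peripheral blood of dust-mite-allergic human donors were incubated with compound (8 concentrations, 0.5% DMSO, triplicate) and then stimulated with 2 μM ionomycin stock (20 μl added) for 30 min at 37° C. Histamine released into the supernatant was measured by ELISA.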

[2] = test system: cultured human mast cells (CHMC); assay: CHMC high cell density IgE activation: histamine; assay type: cell-based
Method in brief: (§1)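 IgE-sensitized CHMC at 1-2 ×10^6 cells/ml were preincubated with compound (0.5% DMSO) for 1 h at 37 °C, then stimulated with anti-IgE for 1 h before supernatant collection. Pellets were reincubated with compound for 7 h at 37 °C, and mediators were measured by ELISA on diluted supernatants.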

[3] = test system: cultured human mast cells (CHMC); assay: CHMC low cell density IgE activation: tryptase assay; assay type: cell-based
Method in brief: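 Read-out: tryptase released into supernatant, measured by substrate turnover over 30 min at RT. Low-density CHMC (1000-1500 cells/well, per donor degranulation activity) in MT buffer, 1 hr at 37° C, then anti-IgE challenge 30 min at 37° C.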

[4] = test system: cultured human mast cells (CHMC); assay: CHMC high cell density IgE activation: hexos; assay type: cell-based
[5] = test system: basophil cells (human peripheral blood); assay: Basophil dustmite activation: histamine release assay; assay type: cell-based; details: basophils, dust mite activation
Procedure: (§2) The basophil activation assay was carried out using whole human peripheral blood from donors allergic to dust mites with the majority of the red blood cells removed by dextran sedimentation. Human peripheral blood was mixed 1:1 with 3% dextran T500 and RBCs were allowed to settle for 20-25min. The upper fraction was diluted with 3 volumes of D-PBS and cells were spun down for 10 min at 1500 rpm, RT. Supernatant was aspirated and cells were washed in an equal volume MT-buffer. Finally, cells were resuspended in MT-buffer containing 0.5% DMSO in the original blood volume. 80 uL cells were mixed with 20 uL compound in the presence of 0.5% DMSO, in triplicate, in a V-bottom 96-well tissue culture plate. A dose range of 8 compound concentrations was tested resulting in a 10-point dose response curve including maximum (stimulated) and minimum (unstimulated) response. […] The cells were stimulated for 30 minutes at 37° C., 5% CO2. The plate was spun for 10 min at 1500 rpm at room temperature and 80 uL the supernatant was harvested for histamine content analysis using the histamine ELISA kit supplied by Immunotech. The ELISA was performed according to supplier's instructions.

[6] = test system: basophil cells (human peripheral blood); assay: Basophil anti-IgE activation: histamine release assay; assay type: cell-based; details: basophils, anti-IgE activation, histamine release; read-out: Basophils anti-IgE Histamine IC50
Procedure: as §2

[7] = test system: cultured human mast cells (CHMC); assay: CHMC high cell density IgE activation: tryptase; assay type: cell-based
[8] = test system: cultured human mast cells (CHMC); assay: CHMC high cell density IgE activation: TNFalpha; assay type: cell-based; details: read-out: CHMC high density TNF-alpha
Method in brief: as §1

[9] = test system: cultured human mast cells (CHMC); assay: CHMC high cell density IgE activation: IL-13; assay type: cell-based
Procedure: After sensitizing, cells are counted, pelleted (1000 rpm, 5-10 minutes), and resuspended at 1-2 ×10^6 cells/ml in MT buffer. Add 100 ul of cell suspension to each well and 100 ul of compound dilutions. The final vehicle concentration is 0.5% DMSO. Incubate at 37° C. (5% CO2) for 1 hour. After 1 hour of compound treatment, stimulate cells with 6× anti-IgE. Mix wells with the cells and allow plates to incubate at 37° C. (5% CO2) for one hour. After 1 hour incubation, pellet cells (10 minutes, 1000 RPM) and collect 200 ul per well of the supernatant, being careful not to disturb pellet. Place the supernatant plate on ice. During the 7-hour step (see next) perform tryptase assay on supernatant that had been diluted 1:500. Resuspend cell pellet in 240 ul of CM media containing 0.5% DMSO and corresponding concentration of compound. Incubate CHMC cells for 7 hours at 37° C. (5% CO2). After incubation, pellet cells (1000 RPM, 10 minutes) and collect 225 ul per well and place in −80° C. until ready to perform ELISAS. ELISAS are performed on appropriately diluted samples (determined empirically for each donor cell population so that the sample measurement falls within the standard curve) following the supplier's instructions.

[10] = test system: Human Jurkat T-cells (clone N); assay: Jurkat T-cell activation (anti-TCR, CD69 upregulation); assay type: cell-based
Method in brief: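 Readout is CD69 upregulation by flow cytometry (anti-CD69-APC, 20 min at 4 °C) after 20 h anti-TCR (C305, 500 ng/ml) stimulation at 37 °C.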

[11] = test system: cultured human mast cells (CHMC); assay: CHMC low cell density ionomycin activation: tryptase assay; assay type: cell-based
[12] = test system: B-cell line BJAB; assay: BJAB toxicity, Cell Titer Glo assay; assay type: cell-based
Procedure: (§3) Seed 50 μl cells (1×10^6/ml) into each well containing 50 μl compound. The final vehicle concentration is 0.5% DMSO, 1.5% MeOH. Shake plates for 1 minute to mix cells and compound. Incubate plates at 37° C. (5% CO2) for 18 hours. Next day, harvest 50 μl cells from each well, add to 50 μl Cell Titer Glo reagent ([…]). Shake plates for 1 minute. Read on luminometer.

[13] = test system: Jurkat cells; assay: Jurkat toxicity, Cell Titer Glo assay; assay type: cell-based, human
Procedure: as §3, with “The final vehicle concentration is 0.5% DMSO, 1.5% MeOH.” left out, “(5% CO2) for 18 hours.” left out

[14] = test system: cultured human mast cells (CHMC); assay: CHMC high cell density IgE activation: LTC4; assay type: cell-based
Method in brief: as §1

[15] = target: T1, Syk kinase (Homo sapiens, UniProt P43405); assay: Syk kinase biochemical fluorescence polarization assay; details: isolated Syk kinase, fluorescence polarization, 4 uM ATP
T1 construct: purchased Upstate, Lake Placid NY

[16] = test system: Syk kinase; assay: Phosphorylation of proteins in the FcεRI cascade in activated CHMC cells; assay type: cell-based, human; details: activated CHMC cells (FIG. 10)
Procedure: Following electrophoresis, the phosphorylation of the proteins indicated in FIGS. 7, 10 and 11A-D were assessed by immunoblot. Antibodies were purchased from Cell Signaling Technology, Beverley, Mass.

[17] = Low Density CHMC, ionomycin activation, tryptase release, read-out: CHMC Ionomycin Tryptase IC50

| SMILES | IC50 [1] [nM] | IC50 [2] [nM] | IC50 ([3]; Low Density CHMC, anti-IgE activation, tryptase release, read-out: CHMC anti-IgE Tryptase IC50) [nM] | IC50 [4] [nM] | IC50 [5] [nM] | IC50 [6] [nM] | IC50 [7] [nM] | IC50 [8] [nM] | IC50 [9] [nM] | IC50 [10] [nM] | IC50 [11, 17] [nM] | IC50 [12] [nM] | IC50 [13] [nM] | IC50 ([3]; Low Density, read-out: CHMC anti-IgE Tryptase) [nM] | IC50 [14] [nM] | IC50 [15] [nM] | IC50 ([11]; Low Density, read-out: CHMC Ionomycin Tryptase) [nM] | phosphorylation of proteins downstream of LYN kinase but not Syk kinase [16] |
| --- | --- | --- | --- | --- | --- | --- | --- | --- | --- | --- | --- | --- | --- | --- | --- | --- | --- | --- |
| O=C(NCCO)c1cc2cc(Nc3ncc(F)c(Nc4cccc(O)c4)n3)ccc2o1 [Compound R926497] | > 10000 | 1330 | 138 | 1110 | 205 | 270 | 1230 | 1880 | > 10000 | 3270 | > 10000 | – | – | – | – | – | – | – |
| Fc1cnc(Nc2cccc(OCCN3CCOCC3)c2)nc1Nc1ccc2c(c1)OCCO2 [Compound R926511] | – | – | – | – | – | – | – | – | > 2000 | – | > 10000 | > 4330 | > 4330 | – | – | – | – | – |
| Cc1cc(Nc2ncc(F)c(Nc3cccc(O)c3)n2)cc(Cl)c1O [Compound R940233] | – | 586 | – | 577 | – | – | 642 | 2250 | 1780 | 2170 | – | > 4330 | > 4330 | 132 | 118 | 151 | > 10000 | – |
| CC(C)(C)n1nc(-c2ccc(Cl)cc2)c2c(N)ncnc21 [PP2, reference compound] | – | – | – | – | – | – | – | – | – | – | – | – | – | – | – | – | – | inhibition of phosphorylation of proteins downstream of LYN kinase but not Syk kinase |
